Patent publication US20180273538A1, “PYRROLO[2,3-d]PYRIMIDINE DERIVATIVES, A PROCESS FOR THEIR PREPARATION AND PHARMACEUTICAL COMPOSITIONS CONTAINING THEM” (LES LABORATOIRES SERVIER, priority 2015, published 2018)

Key:
phospho-Ser520-DYRK1A = molecular target: T1, phospho-Ser520-DYRK1A (Homo sapiens, UniProt Q13627); assay: Cellular DYRK1A autophosphorylation assay in U2-OS cells; assay type: cell-based; conditions: 5 hours exposure, read-out: IC50 (μM) P-Ser520-Dyrk1A-Cell assay
T1 construct: full-length, wild-type human DYRK1A (NM_001396) with an HA tag; expressed in transfected cells; host or cells: human U2-OS osteosarcoma cells, pcDNA3.1 plasmid

[1] = molecular target: T2, His-TEV-DYRK1A Kinase domain (aa127-485) (Homo sapiens, UniProt Q13627); assay: Kinase ADP assay (ADP Hunter Plus); assay type: biochemical
T2 construct: His-TEV-DYRK1A Kinase domain (aa127-485); His (N); TEV cleavage site (N)

IC50 (phospho-Ser520-DYRK1A) [µM]	IC50 [1] [µM]	SMILES
0.0097	0.006	COc1cc(F)ccc1CNc1nc(C)nc2[nH]cc(-c3ccnc(N)c3)c12 [Example 84, 5-(2-aminopyridin-4-yl)-N-(4-fluoro-2-methoxybenzyl)-2-methyl-7H-pyrrolo[2,3-d]pyrimidin-4-amine]
0.0169	0.011	Cc1nc(NCc2cccc3c2OCO3)c2c(-c3ccnc(N)c3)c[nH]c2n1 [Example 127, 5-(2-aminopyridin-4-yl)-N-(1,3-benzodioxol-4-ylmethyl)-2-methyl-7H-pyrrolo[2,3-d]pyrimidin-4-amine]
0.0093	0.009	Cc1nc(NCc2cccc3c2OCO3)c2c(-c3cc(N)nc(N)c3)c[nH]c2n1 [Example 128, 4-{4-[(1,3-benzodioxol-4-ylmethyl)amino]-2-methyl-7H-pyrrolo[2,3-d]pyrimidin-5-yl}pyridine-2,6-diamine]
0.471	0.042	COc1cccc(C(F)(F)F)c1CNc1nc(C)nc2[nH]cc(-c3ccncc3)c12 [Example 145, N-[2-methoxy-6-(trifluoromethyl)benzyl]-2-methyl-5-(pyridin-4-yl)-7H-pyrrolo[2,3-d]pyrimidin-4-amine]
0.0101	0.012	Nc1cc(-c2c[nH]c3nc(C#CC4CC4)nc(NCc4c(F)cccc4F)c23)ccn1 [Example 152, 5-(2-aminopyridin-4-yl)-2-(cyclopropylethynyl)-N-(2,6-difluorobenzyl)-7H-pyrrolo[2,3-d]pyrimidin-4-amine]
0.0146	0.011	Nc1cc(-c2c[nH]c3nc(C#CC4CC4)nc(-c4ccc5c(c4)OCO5)c23)ccn1 [Example 153, 4-[4-(1,3-benzodioxol-5-yl)-2-(cyclopropylethynyl)-7H-pyrrolo[2,3-d]pyrimidin-5-yl]pyridin-2-amine]
0.053	0.013	Nc1cc(-c2c[nH]c3nc(C#CC4CC4)nc(-c4ccc5c(c4)OCO5)c23)cc(N)n1 [Example 154, 4-[4-(1,3-benzodioxol-5-yl)-2-(cyclopropylethynyl)-7H-pyrrolo[2,3-d]pyrimidin-5-yl]pyridine-2,6-diamine]
0.0187	0.012	Cc1nc(/C=C/c2ccccc2)c2c(-c3ccnc(N)c3)c[nH]c2n1 [Example 159]
0.0883	0.015	Cc1nc(-c2ccc3c(c2)OC(F)(F)O3)c2c(-c3ccnc(N)c3)c[nH]c2n1 [Example 164, 4-[4-(2,2-difluoro-1,3-benzodioxol-5-yl)-2-methyl-7H-pyrrolo[2,3-d]pyrimidin-5-yl]pyridin-2-amine]
–	0.01	Cc1nc(-c2cccc(C(F)(F)F)c2)c2c(-c3ccnc(N)c3)c[nH]c2n1 [Example 168, 4-{2-methyl-4-[3-(trifluoromethyl)phenyl]-7H-pyrrolo[2,3-d]pyrimidin-5-yl}pyridin-2-amine]
–	0.216	Cc1nc(-c2ccc(CN3CCN(C)CC3)cc2)c2c(-c3ccnc(N)c3)c[nH]c2n1 [Example 169, 4-(2-methyl-4-{4-[(4-methylpiperazin-1-yl)methyl]phenyl}-7H-pyrrolo[2,3-d]pyrimidin-5-yl)pyridin-2-amine]
–	1.82	Cc1nc(-c2cncc(F)c2)c2c(-c3ccnc(N)c3)c[nH]c2n1 [Example 170]
–	0.033	Cc1nc(-c2cccc(N3CCCC3)c2)c2c(-c3ccnc(N)c3)c[nH]c2n1 [Example 171]
–	0.037	CCOc1ccc(-c2nc(C)nc3[nH]cc(-c4ccnc(N)c4)c23)cc1 [Example 172]
–	0.07	Cc1nc(-c2cccc(OCCCN3CCOCC3)c2)c2c(-c3ccnc(N)c3)c[nH]c2n1 [Example 174, 4-(2-methyl-4-{3-[3-(morpholin-4-yl)propoxy]phenyl}-7H-pyrrolo[2,3-d]pyrimidin-5-yl)pyridin-2-amine]
–	0.146	Cc1nc(-c2ccc(C#N)c(F)c2)c2c(-c3ccnc(N)c3)c[nH]c2n1 [Example 175]
–	0.196	Cc1nc(CN2CCC(F)(F)C2)c2c(-c3ccnc(N)c3)c[nH]c2n1 [Example 176]
–	0.532	Cc1nc(CN2CCCC(F)(F)C2)c2c(-c3ccnc(N)c3)c[nH]c2n1 [Example 177]
–	0.079	Cc1nc(-c2cc(F)cc(F)c2)c2c(-c3ccnc(N)c3)c[nH]c2n1 [Example 180]
0.15	0.019	Cc1nc(-c2cccc(OC(F)(F)F)c2)c2c(-c3ccnc(N)c3)c[nH]c2n1 [Example 181]
0.0142	0.013	Cc1nc(-c2cc3ccccc3s2)c2c(-c3ccnc(N)c3)c[nH]c2n1 [Example 182]
0.029	0.006	Cc1nc(-c2cc3ccccc3o2)c2c(-c3ccnc(N)c3)c[nH]c2n1 [Example 183]
0.0319	0.012	Cc1ccc2sc(-c3nc(C)nc4[nH]cc(-c5ccnc(N)c5)c34)cc2c1 [Example 184]
–	0.07	Cc1nc(C2CCc3ccccc3C2)c2c(-c3ccnc(N)c3)c[nH]c2n1 (stereo not shown) [Example 188]
–	0.062	Cc1nc([C@H]2CCc3ccccc3C2)c2c(-c3ccnc(N)c3)c[nH]c2n1 [Example 189]

IC50 (phospho-Ser520-DYRK1A) [µM]	IC50 [1] [µM]	SMILES
–	0.419	Cc1nc([C@@H]2CCc3ccccc3C2)c2c(-c3ccnc(N)c3)c[nH]c2n1 [Example 190]
0.0443	0.006	Cc1nc(-c2cc(F)c3c(c2)OCO3)c2c(-c3ccnc(N)c3)c[nH]c2n1 [Example 191]
0.048	0.008	Cc1nc(-c2ccc3c(c2)OCO3)c2c(-c3cc(N)nc(N)c3)c[nH]c2n1 [Example 192]
–	0.116	Cc1nc(COc2ccccc2C(F)(F)F)c2c(-c3ccnc(N)c3)c[nH]c2n1 [Example 193, 4-(2-methyl-4-{[2-(trifluoromethyl)phenoxy]methyl}-7H-pyrrolo[2,3-d]pyrimidin-5-yl)pyridin-2-amine]
0.017	0.007	Cc1nc(C#Cc2ccccc2F)c2c(-c3ccnc(N)c3)c[nH]c2n1 [Example 194]
0.0071	0.008	Cc1nc(-c2ccc3c(c2)CCCC3)c2c(-c3ccnc(N)c3)c[nH]c2n1 [Example 195]
0.172	0.023	Cc1nc(C#CC2CC2)c2c(-c3cc(N)nc(N)c3)c[nH]c2n1 [Example 196]
–	0.009	COc1ccccc1C#Cc1nc(C)nc2[nH]cc(-c3ccnc(N)c3)c12 [Example 197]
0.119	0.017	Cc1nc(C#CC2CC2)c2c(-c3ccnc(N)c3)c[nH]c2n1 [Example 198, 4-[4-(cyclopropylethynyl)-2-methyl-7H-pyrrolo[2,3-d]pyrimidin-5-yl]pyridin-2-amine]
–	0.148	Cc1nc(-c2cccc(OCCCN3CCCCC3)c2)c2c(-c3ccnc(N)c3)c[nH]c2n1 [Example 199]
–	0.027	Cc1nc(-c2cccc(OCCCN3CCN(C)CC3)c2)c2c(-c3ccnc(N)c3)c[nH]c2n1 [Example 200]
–	0.012	Cc1nc(-c2cccc(OCCCl)c2)c2c(-c3ccnc(N)c3)c[nH]c2n1 [Example 201]
–	0.144	Cc1nc(-c2cccc(OCCN3CCCC3)c2)c2c(-c3ccnc(N)c3)c[nH]c2n1 [Example 202]
–	0.155	Cc1nc(-c2cccc(OCCN(C)C)c2)c2c(-c3ccnc(N)c3)c[nH]c2n1 [Example 203]
–	0.089	Cc1nc(-c2cccc(OCCN3CCOCC3)c2)c2c(-c3ccnc(N)c3)c[nH]c2n1 [Example 204]
–	0.055	Cc1cc(-c2c[nH]c3nc(C)nc(NCc4c(F)cccc4F)c23)nc(N)n1 [Example 205, 5-(2-amino-6-methylpyrimidin-4-yl)-N-(2,6-difluorobenzyl)-2-methyl-7H-pyrrolo[2,3-d]pyrimidin-4-amine]
0.0041	0.01	Cc1nc(NCc2cccc3c2OCO3)c2c(-c3ccnc(N)n3)c[nH]c2n1 [Example 208, 5-(2-aminopyrimidin-4-yl)-N-(1,3-benzodioxol-4-ylmethyl)-2-methyl-7H-pyrrolo[2,3-d]pyrimidin-4-amine]
0.157	0.032	Cc1nc(-c2ccc3c(c2)OCO3)c2c(-c3ccnc(N)n3)c[nH]c2n1 [Example 209, 4-[4-(1,3-benzodioxol-5-yl)-2-methyl-7H-pyrrolo[2,3-d]pyrimidin-5-yl]pyrimidin-2-amine]
–	0.05	Cc1nc(-c2ccc3c(c2)OC(F)(F)O3)c2c(-c3ccnc(N)n3)c[nH]c2n1 [Example 210, 4-[4-(2,2-difluoro-1,3-benzodioxol-5-yl)-2-methyl-7H-pyrrolo[2,3-d]pyrimidin-5-yl]pyrimidin-2-amine]
–	0.027	C#Cc1nc(N2CCc3ccccc3C2)c2c(-c3ccnc(N)n3)c[nH]c2n1 [Example 211, 4-[4-(3,4-dihydroisoquinolin-2(1H)-yl)-2-ethynyl-7H-pyrrolo[2,3-d]pyrimidin-5-yl]pyrimidin-2-amine]
–	0.009	Cc1nc(NCc2c(F)cccc2F)c2c(-c3cc(N)ncn3)c[nH]c2n1 [Example 212, 5-(6-aminopyrimidin-4-yl)-N-(2,6-difluorobenzyl)-2-methyl-7H-pyrrolo[2,3-d]pyrimidin-4-amine]
–	0.242	Cc1cc(-c2cncc(F)c2)c2c(-c3ccnc(N)c3)c[nH]c2n1 [Example 214, 4-[4-(5-fluoropyridin-3-yl)-6-methyl-1H-pyrrolo[2,3-b]pyridin-3-yl]pyridin-2-amine]
–	0.043	N#Cc1cc(-c2ccc3c(c2)OCO3)c2c(-c3ccnc(N)c3)c[nH]c2n1 [Example 223, 3-(2-aminopyridin-4-yl)-4-(1,3-benzodioxol-5-yl)-1H-pyrrolo[2,3-b]pyridine-6-carbonitrile]
–	0.037	Cc1cc(-c2ccc3c(c2)N(C)CCO3)c2c(-c3ccnc(N)c3)c[nH]c2n1 [Example 225, 4-[6-methyl-4-(4-methyl-3,4-dihydro-2H-1,4-benzoxazin-6-yl)-1H-pyrrolo[2,3-b]pyridin-3-yl]pyridin-2-amine]
